In general, IC90 refers to the concentration at which the effect reaches the 90% level.

The test system of the assay is Acinetobacter baumannii ATCC17961. Briefly: 90% Growth Inhibitory Concentration (IC90) determination, antimicrobial susceptibility testing. Format: cell-based. The following applies: Acinetobacter baumannii, ATCC17961, 16 h, Acinetobacter baumannii ATCC17961; Iso-Sensitest broth; growth by optical density at 600 nm over 16h; concentration inhibiting 90% of the growth; read-out: ATCC 17961 IC90. In a few lines: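 Broth microdilution in Iso-Sensitest medium, compounds twofold diluted (e.g. 50–0.097 μM final), inoculum ~5×10^(5) CFU/ml, 35±2° C. OD600 was read every 20 min over 16 h. IC90 was derived from growth inhibition during logarithmic growth.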
Consider `COc1cccc(-n2cc(-c3cnc(C(=O)Nc4ccc(C(=O)N5CCN(C(=O)C6CCNCC6)CC5)c(Cl)c4)n3C)c(C(F)(F)F)n2)n1` [Example Z31, N-[3-chloro-4-(4-isonipecotoylpiperazine-1-carbonyl)phenyl]-5-[1-(6-methoxy-2-pyridyl)-3-(trifluoromethyl)pyrazol-4-yl]-1-methyl-imidazole-2-carboxamide], for which the IC90 worked out at 860 nM.

Take `Cn1c(-c2cn(-c3cc(N)c([N+](=O)[O-])cn3)nc2C(F)(F)F)cnc1C(=O)Nc1ccc(C(=O)N2CCN(C(=O)C3CCNCC3)CC2)c(Cl)c1` [Example Z85, 5-[1-(4-amino-5-nitro-2-pyridyl)-3-(trifluoromethyl)pyrazol-4-yl]-N-[3-chloro-4-[4-(piperidine-4-carbonyl)piperazine-1-carbonyl]phenyl]-1-methyl-imidazole-2-carboxamide]: the IC90 worked out at 170 nM.

With `Cn1c(-c2cn(-c3ccc(N)cn3)nc2C(F)(F)F)cnc1C(=O)Nc1ccc(C(=O)NCC2CCN(C(=O)C3CCNCC3)CC2)c(Cl)c1` [Example C7, 5-[1-(5-amino-2-pyridyl)-3-(trifluoromethyl)pyrazol-4-yl]-N-[3-chloro-4-[[1-(piperidine-4-carbonyl)-4-piperidyl]methylcarbamoyl]phenyl]-1-methyl-imidazole-2-carboxamide], the IC90 worked out at 660 nM.

For `Cn1c(-c2cn(-c3ccc(N)cn3)nc2C(F)(F)F)cnc1C(=O)Nc1ccc(C(=O)N[C@@H]2CC[C@@H](NC(=O)[C@@H]3C[C@@H](O)CN3)C2)c(Cl)c1` [Example Z23, 5-[1-(5-amino-2-pyridyl)-3-(trifluoromethyl)pyrazol-4-yl]-N-[3-chloro-4-[[(1R,3R)-3-[[(2S,4R)-4-hydroxyprolyl]amino]cyclopentyl]carbamoyl]phenyl]-1-methyl-imidazole-2-carboxamide], the IC90 was 360 nM.

On to `C[C@H]1CNCCN1C(=O)c1ccc(NC(=O)c2ncc(-c3cn(-c4ccc(N)cn4)nc3C(F)(F)F)n2C)cc1Cl` [Example Z56, 5-[1-(5-amino-2-pyridyl)-3-(trifluoromethyl)pyrazol-4-yl]-N-[3-chloro-4-[(2S)-2-methylpiperazine-1-carbonyl]phenyl]-1-methyl-imidazole-2-carboxamide], for which the IC90 was determined as 400 nM.

Take `Cc1ccc(-n2cc(-c3cnc(C(=O)Nc4ccc(C(=O)N5CCN(C(=O)C6CCNCC6)CC5)c(Cl)c4)n3C)c(C(F)(F)F)n2)nc1` [Example E6, N-[3-chloro-4-[4-(piperidine-4-carbonyl)piperazine-1-carbonyl]phenyl]-1-methyl-5-[1-(5-methyl-2-pyridyl)-3-(trifluoromethyl)pyrazol-4-yl]imidazole-2-carboxamide]: the IC90 amounted to 350 nM.

`CC(C)[C@H]1CN(C(=O)c2ccc(NC(=O)c3ncc(-c4cn(-c5ccc(N)cn5)nc4C(F)(F)F)n3C)cc2Cl)CCN1` [Example Z58, 5-[1-(5-amino-2-pyridyl)-3-(trifluoromethyl)pyrazol-4-yl]-N-[3-chloro-4-[(3S)-3-isopropylpiperazine-1-carbonyl]phenyl]-1-methyl-imidazole-2-carboxamide]: the 90% effect concentration (IC90) came out at 560 nM.

For the molecule `CN(C)c1ccnc(-n2cc(-c3cnc(C(=O)Nc4ccc(C(=O)N5CCN(C(=O)C6CCNCC6)CC5)c(Cl)c4)n3C)c(C(F)(F)F)n2)n1` [Example A17, N-[3-chloro-4-[4-(piperidine-4-carbonyl)piperazine-1-carbonyl]phenyl]-5-[1-[4-(dimethylamino)pyrimidin-2-yl]-3-(trifluoromethyl)pyrazol-4-yl]-1-methyl-imidazole-2-carboxamide], the IC90 is 500 nM.

With `Cn1c(-c2cn(-c3cnc(N)cn3)nc2C(F)(F)F)cnc1C(=O)Nc1ccc(C(=O)N2CCN(C(=O)C3CCNCC3)CC2)c(Cl)c1` [Example Z29, 5-[1-(5-aminopyrazin-2-yl)-3-(trifluoromethyl)pyrazol-4-yl]-N-[3-chloro-4-(4-isonipecotoylpiperazine-1-carbonyl)phenyl]-1-methyl-imidazole-2-carboxamide], the IC90 is 600 nM.

The record behind these values is patent US12679824B2 (Hoffmann-La Roche Inc., priority 2020, dated 2026).
